Data published in US8299048B2, “Hexahydrocyclopentyl[f]indazole sulfonamides and derivatives thereof as selective glucocorticoid receptor modulators” (Merck Sharp & Dohme Corp., priority 2008, dated 2012).

molecular target: T1, glucocorticoid receptor (Homo sapiens, UniProt P04150); experiment: Ligand binding assay (GR BIND)
T1 construct: endogenous in cells
T1 sequence (P04150 1-777): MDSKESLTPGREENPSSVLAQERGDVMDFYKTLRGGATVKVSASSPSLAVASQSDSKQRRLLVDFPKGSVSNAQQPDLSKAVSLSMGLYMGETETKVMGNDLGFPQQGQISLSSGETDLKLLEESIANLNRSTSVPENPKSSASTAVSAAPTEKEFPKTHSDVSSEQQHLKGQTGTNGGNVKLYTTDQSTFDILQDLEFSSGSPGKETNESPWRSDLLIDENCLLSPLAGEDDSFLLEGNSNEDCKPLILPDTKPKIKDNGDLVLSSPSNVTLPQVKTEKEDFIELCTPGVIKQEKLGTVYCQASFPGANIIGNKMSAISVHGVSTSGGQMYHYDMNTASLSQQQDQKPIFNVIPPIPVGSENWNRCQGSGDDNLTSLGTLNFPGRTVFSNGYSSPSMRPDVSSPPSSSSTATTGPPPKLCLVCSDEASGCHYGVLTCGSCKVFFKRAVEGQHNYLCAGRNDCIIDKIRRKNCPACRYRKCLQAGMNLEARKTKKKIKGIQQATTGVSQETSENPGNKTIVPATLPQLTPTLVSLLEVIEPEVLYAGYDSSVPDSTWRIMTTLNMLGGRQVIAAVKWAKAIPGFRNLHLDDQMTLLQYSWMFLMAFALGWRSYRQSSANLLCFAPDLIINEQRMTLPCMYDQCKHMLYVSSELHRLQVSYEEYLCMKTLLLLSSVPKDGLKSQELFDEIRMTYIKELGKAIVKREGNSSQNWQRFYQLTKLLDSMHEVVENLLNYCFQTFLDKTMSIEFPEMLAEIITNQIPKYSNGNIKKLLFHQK
Method in brief: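 Displacement of tritiated dexamethasone (6 nM trace solution) from receptor in cell supernatant was measured after overnight incubation at 4 °C in molybdate-containing TEGM, pH 7.2, 2% ethanol. Hydroxylapatite pulled down the receptor–ligand complex for filter washing and scintillation counting, with dexamethasone as reference.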

| Ki [nM] | Compound |
| --- | --- |
| 8.8 | C[C@]12Cc3cnn(-c4ccc(F)cc4)c3C=C1CC[C@@H]2CN(CC#N)S(=O)(=O)c1ccc(Cl)c(C(F)(F)F)c1 [Example 27, 4-chloro-N-(cyanomethyl)-N-{[(4αR,5S)-1-(4-fluorophenyl)-4α-methyl-1,4,4α,5,6,7-hexahydrocyclopenta[f]indazol-5-yl]methyl}-3-(trifluoromethyl)benzenesulfonamide] |
| 1 | C[C@]12Cc3cnn(-c4ccc(F)cc4)c3C=C1CC[C@@H]2CN(CCCc1ccccc1)S(=O)(=O)CC(F)(F)F [Example 193, 2,2,2-trifluoro-N-{[(4αR,5S)-1-(4-fluorophenyl)-4α-methyl-1,4,4α,5,6,7-hexahydrocyclopenta[f]indazol-5-yl]methyl}-N-(3-phenylpropyl)ethanesulfonamide] |
| 64 | C[C@H](O)CN(C[C@H]1CCC2=Cc3c(cnn3-c3ccc(F)cc3)C[C@@]21C)S(=O)(=O)Cc1ccccc1C(=O)O [Example 183, 2-[({{[(4αR,5S)-1-(4-fluorophenyl)-4α-methyl-1,4,4α,5,6,7-hexahydrocyclopenta[f]indazol-5-yl]methyl}[(2S)-2-hydroxypropyl]amino}sulfonyl)methyl]benzoic acid] |
| 2.3 | C[C@]12Cc3cnn(-c4ccc(F)cc4)c3C=C1CC[C@@H]2CN(CCO)S(=O)(=O)c1cc(Cl)c(Cl)s1 [Example 58, 4,5-dichloro-N-{[(4αR,5S)-1-(4-fluorophenyl)-4α-methyl-1,4,4α,5,6,7-hexahydrocyclopenta[f]indazol-5-yl]methyl}-N-(2-hydroxyethyl)thiophene-2-sulfonamide] |
| 2.5 | C[C@]12Cc3cnn(-c4ccc(F)cc4)c3C=C1CC[C@@H]2CN(CCO)S(=O)(=O)c1cccc(Cl)c1Cl [Example 61, 2,3-dichloro-N-{[(4αR,5S)-1-(4-fluorophenyl)-4α-methyl-1,4,4α,5,6,7-hexahydrocyclopenta[f]indazol-5-yl]methyl}-N-(2-hydroxyethyl)benezenesulfonamide] |
| 3.4 | CCS(=O)(=O)N(CC1CCCO1)C[C@H]1CCC2=Cc3c(cnn3-c3ccc(F)cc3)C[C@@]21C (stereo partly drawn) [Example 174, N-{[(4αR,5S)-1-(4-fluorophenyl)-4α-methyl-1,4,4α,5,6,7-hexahydrocyclopenta[f]indazol-5-yl]methyl}-N-(tetrahydrofuran-2-ylmethyl)ethanesulfonamide] |
| 1.2 | COC(=O)c1ccccc1CS(=O)(=O)N(CCc1ccccc1F)C[C@H]1CCC2=Cc3c(cnn3-c3ccc(F)cc3)C[C@@]21C [Example 188, methyl 2-{[([2-(2-fluorophenyl)ethyl]{[(4αR,5S)-1-(4-fluorophenyl)-4α-methyl-1,4,4α,5,6,7-hexahydrocyclopenta[f]indazol-5-yl]methyl}amino)sulfonyl]methyl}benzoate] |
| 2.8 | COC(=O)c1ccccc1CS(=O)(=O)N(C[C@H]1CCC2=Cc3c(cnn3-c3ccc(F)cc3)C[C@@]21C)C[C@H](C)O [Example 181, methyl 2-[({{[(4αR,5S)-1-(4-fluorophenyl)-4α-methyl-1,4,4α,5,6,7-hexahydrocyclopenta[f]indazol-5-yl]methyl}[(2S)-2-hydroxypropyl]amino}sulfonyl)methyl]benzoate] |

The remaining lines, values behind:

| Compound | Ki [nM] |
| --- | --- |
| CN1CCOc2cc(S(=O)(=O)N(CC#N)C[C@H]3CCC4=Cc5c(cnn5-c5ccc(F)cc5)C[C@@]43C)ccc21 [Example 39, N-(cyanomethyl)-N-{[(4αR,5S)-1-(4-fluorophenyl)-4α-methyl-1,4,4α,5,6,7-hexahydrocyclopenta[f]indazol-5-yl]methyl}-4-methyl-3,4-dihydro-2H-1,4-benzoxazine-7-sulfonamide] | 8.1 |
| C[C@@H](O)CN(C[C@H]1CCC2=Cc3c(cnn3-c3ccc(F)cc3)C[C@@]21C)S(=O)(=O)Cc1ccccc1C(=O)O [Example 182, 2-[({{[(4αR,5S)-1-(4-fluorophenyl)-4α-methyl-1,4,4α,5,6,7-hexahydrocyclopenta[f]indazol-5-yl]methyl}[(2R)-2-hydroxypropyl]amino}sulfonyl)methyl]benzoic acid] | 93.9 |
| CCS(=O)(=O)N(CCOC)C[C@H]1CCC2=Cc3c(cnn3-c3ccc(F)cc3)C[C@@]21C [Example 171, N-{[(4αR,5S)-1-(4-fluorophenyl)-4α-methyl-1,4,4α,5,6,7-hexahydrocyclopenta[f]indazol-5-yl]methyl}-N-(2-methoxyethyl)ethanesulfonamide] | 7 |
| COC(=O)c1ccccc1CS(=O)(=O)N(C[C@H]1CCC2=Cc3c(cnn3-c3ccc(F)cc3)C[C@@]21C)C[C@@H](C)O [Example 180, methyl 2-[({{[(4αR,5S)-1-(4-fluorophenyl)-4α-methyl-1,4,4α,5,6,7-hexahydrocyclopenta[f]indazol-5-yl]methyl}[(2R)-2-hydroxypropyl]amino}sulfonyl)methyl]benzoatee] | 1.8 |
| C[C@]12Cc3cnn(-c4ccc(F)cc4)c3C=C1CC[C@@H]2CN(CC#N)S(=O)(=O)c1ccc(-c2ccccc2)cc1 [Example 42, N-(cyanomethyl)-N-{[(4αR,5S)-1-(4-fluorophenyl)-4α-methyl-1,4,4α,5,6,7-hexahydrocyclopenta[f]indazol-5-yl]methyl}biphenyl-4-sulfonamide] | 5.9 |
| C[C@]12Cc3cnn(-c4ccc(F)cc4)c3C=C1CC[C@@H]2CN(CC1CC1)S(=O)(=O)Cc1ccccc1 [Example 21, N-(cyclopropylmethyl)-N-{[(4αR,5S)-1-(4-fluorophenyl)-4α-methyl-1,4,4α,5,6,7-hexahydrocyclopenta[f]indazol-5-yl]methyl}-1-phenylmethanesulfonamide] | 3 |
| C[C@]12Cc3cnn(-c4ccc(F)cc4)c3C=C1CC[C@@H]2CN(CC#N)S(=O)(=O)c1ccccc1F [Example 43, N-(cyanomethyl)-2-fluoro-N-{[(4αR,5S)-1-(4-fluorophenyl)-4α-methyl-1,4,4α,5,6,7-hexahydrocyclopenta[f]indazol-5-yl]methyl}benzenesulfonamide] | 2.2 |
| COC(=O)c1sccc1S(=O)(=O)N(CC#N)C[C@H]1CCC2=Cc3c(cnn3-c3ccc(F)cc3)C[C@@]21C [Example 34, methyl 3-[((cyanomethyl){[(4αR,5S)-1-(4-fluorophenyl)-4α-methyl-1,4,4α,5,6,7-hexahydrocyclopenta[f]indazol-5-yl]methyl}amino)sulfonyl]thiophene-2-carboxylate] | 1.7 |
| C[C@]12Cc3cnn(-c4ccc(F)cc4)c3C=C1CC[C@@H]2CN(CCO)S(=O)(=O)c1ccccc1F [Example 17, 2-fluoro-N-{[(4αR,5S)-1-(4-fluorophenyl)-4α-methyl-1,4,4α,5,6,7-hexahydrocyclopenta[f]indazol-5-yl]methyl}-N-(2-hydroxyethyl)benzenesulfonamide] | 2.1 |
| C[C@]12Cc3cnn(-c4ccc(F)cc4)c3C=C1CC[C@@H]2CN(CC1CCCO1)S(=O)(=O)c1ccc(C(N)=O)cc1 (stereo partly drawn) [Example 191, 4-{[{[(4αR,5S)-1-(4-fluorophenyl)-4α-methyl-1,4,4α,5,6,7-hexahydrocyclopenta[f]indazol-5-yl]methyl}(tetrahydrofuran-2-ylmethyl)amino]sulfonyl}benzamide] | 2 |
| Cc1cc(S(=O)(=O)N(CC#N)C[C@H]2CCC3=Cc4c(cnn4-c4ccc(F)cc4)C[C@@]32C)c(C)cc1Cl [Example 29, 4-chloro-N-(cyanomethyl)-N-{[(4αR,5S)-1-(4-fluorophenyl)-4α-methyl-1,4,4α,5,6,7-hexahydrocyclopenta[f]indazol-5-yl]methyl}-2,5-dimethylbenzenesulfonamide] | 8.4 |
| C[C@]12Cc3cnn(-c4ccc(F)cc4)c3C=C1CC[C@@H]2CN(CC#N)S(=O)(=O)c1ccc(F)c(F)c1 [Example 25, N-(cyanomethyl)-3,4-difluoro-N-{[(4αR,5S)-1-(4-fluorophenyl)-4α-methyl-1,4,4α,5,6,7-hexahydrocyclopenta[f]indazol-5-yl]methyl}benzenesulfonamide] | 2.5 |
| C[C@]12Cc3cnn(-c4ccc(F)cc4)c3C=C1CC[C@@H]2CN(CCO)S(=O)(=O)c1ccc(F)c(F)c1 [Example 59] | 2.6 |
| C[C@]12Cc3cnn(-c4ccc(F)cc4)c3C=C1CC[C@@H]2CN(CC#N)S(=O)(=O)c1cccc(Cl)c1Cl [Example 26, 2,3-dichloro-N-(cyanomethyl)-N-{[(4αR,5S)-1-(4-fluorophenyl)-4α-methyl-1,4,4α,5,6,7-hexahydrocyclopenta[f]indazol-5-yl]methyl}benzenesulfonamide] | 9.7 |
| Cc1cc(S(=O)(=O)N(CC#N)C[C@H]2CCC3=Cc4c(cnn4-c4ccc(F)cc4)C[C@@]32C)c(C)o1 [Example 33, (4αR,5S)-5-({(cyanomethyl)[(2,5-dimethyl-3-furyl)sulfonyl]amino}methyl)-1-(4-fluorophenyl)-4α-methyl-1,4,4α,5,6,7-hexahydrocyclopenta[f]indazol-2-ium] | 8.8 |
